In patent US6914045B2, “Glycopeptide antibiotics” (Wyeth Holdings Corporation, priority 2001, dated 2005):
Values after ≈ are worked out from the molar mass of the structure shown.

Assays:
[1] = test system: Staphylococcus aureus-SMITH (GC 4543); assay: acute lethal infection in mice; format: in vivo; conditions: acute lethal infection, female CD-1 mice, intraperitoneal challenge, intravenous 30 min. after infection, 7 day survival
How it was run: (§1)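 Survival at 7 days, pooled from three independent tests, yields ED50 values. Treatment is intravenous, 30 min after ip infection of female CD-1 mice, using an inoculum lethal to untreated controls within 24-48 hr.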

[2] = test system: Enterococcus faecalis (GC 6189); assay: acute lethal infection in mice; format: in vivo; conditions: female CD-1 mice, intraperitoneal challenge, intravenous 30 min. after infection, 7 day survival
How it was run: as §1

[3] = test system: Enterococcus sp.; assay: in vitro antibacterial evaluation, MIC by broth dilution; format: cell-based; conditions: broth dilution, 18 hours at 35° C.
How it was run: (§2)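 Broth dilution per NCCLS standard M7-A2 in Muller-Hinton II […], with an inoculum of 5×10^5 CFU/mL and antibiotic spanning 64-0.06 μg/mL. The MIC is the lowest concentration that inhibits growth of the organism.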

[4] = test system: Escherichia coli; assay: as above; format: cell-based; conditions: 18 hours at 35° C.
How it was run: as §2

[5] = test system: Staphylococcus sp.; assay: as above; format: cell-based; conditions: broth dilution, 18 hours at 35° C.
How it was run: as §2

[6] = test system: Streptococcus sp.; assay: as above; format: cell-based; conditions: broth dilution, 18 hours at 35° C.
How it was run: as §2

CC(c1ccccc1)C1NC(=O)CNC(=O)C(CO)NC(=O)C(C(O)C2CNC(=N)N2C2OC(CO)C(O)C(O)C2O)NC(=O)C(C(O)C2CNC(=N)N2)NC(=O)C(Cc2ccc(OC3OC(CO)C(OC4OC5COC(Cc6ccc(F)cc6)OC5C(O)C4O)C(O)C3O)cc2)NC1=O (stereo not drawn) [Example 121, Cyclo[glycyl-β-methylphenylalanyl-O-[4-O-[4,6-O-(4-fluorophenethylidene)hexopyranosyl]-hexopyranosyl]tyrosyl-3-(2-iminoimidazolidin-4-yl)seryl-3-(3-hexopyranosyl-2-iminoimidazolidin-4-yl)serylseryl]]
median effective dose (ED50), Staphylococcus aureus-SMITH (GC 4543) [1]: 0.32 mg/kg
median effective dose (ED50), Enterococcus faecalis (GC 6189) [2]: 0.5 mg/kg
MIC Enterococcus avium (GC 4558) ([3]; Enterococcus avium (GC 4558)): 4 µg/mL (≈ 2.83 µM)
MIC Enterococcus faecalis (ATCC 29212) ([3]; Enterococcus faecalis (ATCC 29212)): 2 µg/mL (≈ 1.41 µM)
MIC Enterococcus faecalis (GC 2242) ([3]; Enterococcus faecalis (GC 2242)): 2 µg/mL (≈ 1.41 µM)
MIC Enterococcus faecalis (GC 2691) ([3]; Enterococcus faecalis (GC 2691)): 4 µg/mL (≈ 2.83 µM)
MIC Enterococcus faecalis (GC 3059) ([3]; Enterococcus faecalis (GC 3059)): 2 µg/mL (≈ 1.41 µM)
MIC Enterococcus faecalis (GC 4552) ([3]; Enterococcus faecalis (GC 4552)): 2 µg/mL (≈ 1.41 µM)
MIC Enterococcus faecalis (GC 4553) ([3]; Enterococcus faecalis (GC 4553)): 4 µg/mL (≈ 2.83 µM)
MIC Enterococcus faecalis (GC 4554) ([3]; Enterococcus faecalis (GC 4554)): 2 µg/mL (≈ 1.41 µM)
MIC Enterococcus faecalis (GC 6189) ([3]; Enterococcus faecalis (GC 6189)): 2 µg/mL (≈ 1.41 µM)
MIC Enterococcus faecium (GC 2243) ([3]; Enterococcus faecium (GC 2243)): 2 µg/mL (≈ 1.41 µM)
MIC Enterococcus faecium (GC 4556) ([3]; Enterococcus faecium (GC 4556)): 2 µg/mL (≈ 1.41 µM)
MIC Enterococcus faecium (GC 4557) ([3]; Enterococcus faecium (GC 4557)): 2 µg/mL (≈ 1.41 µM)
MIC Enterococcus faecalis (ATCC 29212) ([3]; strain ATCC 29212): 2 µg/mL (≈ 1.41 µM)
MIC Enterococcus faecalis (GC 2242) ([3]; strain GC 2242): 2 µg/mL (≈ 1.41 µM)
MIC Enterococcus faecium (GC 2243) ([3]; strain GC 2243): 2 µg/mL (≈ 1.41 µM)
MIC Enterococcus faecalis (GC 2691) ([3]; strain GC 2691): 4 µg/mL (≈ 2.83 µM)
MIC Enterococcus faecalis (GC 3059) ([3]; strain GC 3059): 2 µg/mL (≈ 1.41 µM)
MIC Enterococcus faecalis (GC 4552) ([3]; strain GC 4552): 2 µg/mL (≈ 1.41 µM)
MIC Enterococcus faecalis (GC 4553) ([3]; strain GC 4553): 4 µg/mL (≈ 2.83 µM)
MIC Enterococcus faecalis (GC 4554) ([3]; strain GC 4554): 2 µg/mL (≈ 1.41 µM)
MIC Enterococcus faecium (GC 4556) ([3]; strain GC 4556): 2 µg/mL (≈ 1.41 µM)
MIC Enterococcus faecium (GC 4557) ([3]; strain GC 4557): 2 µg/mL (≈ 1.41 µM)
MIC Enterococcus avium (GC 4558) ([3]; strain GC 4558): 4 µg/mL (≈ 2.83 µM)
MIC Enterococcus faecalis (GC 6189) ([3]; strain GC 6189): 2 µg/mL (≈ 1.41 µM)
MIC Escherichia coli (ATCC 25922) ([4]; strain ATCC 25922): 32 µg/mL (≈ 22.6 µM)
MIC Escherichia coli (GC 4559) ([4]; strain GC 4559): 32 µg/mL (≈ 22.6 µM)
MIC Escherichia coli (GC 4560) ([4]; strain GC 4560): 1 µg/mL (≈ 0.707 µM)
MIC Coagulase Negative Staphylococcus (GC 4547) [5]: 1 µg/mL (≈ 0.707 µM)
MIC Coagulase Negative Staphylococcus (GC 4548) [5]: 0.5 µg/mL (≈ 0.353 µM)
MIC Coagulase Negative Staphylococcus (GC 4549) [5]: 0.5 µg/mL (≈ 0.353 µM)
MIC Coagulase Negative Staphylococcus (GC 4551) [5]: 2 µg/mL (≈ 1.41 µM)
MIC Coagulase Negative Staphylococcus (GC 6257) [5]: 1 µg/mL (≈ 0.707 µM)
MIC Staphylococcus aureus (ATCC 29213) [5]: 1 µg/mL (≈ 0.707 µM)
MIC Staphylococcus aureus (GC 1131) [5]: 2 µg/mL (≈ 1.41 µM)
MIC Staphylococcus aureus (GC 3051) [5]: 1 µg/mL (≈ 0.707 µM)
MIC Staphylococcus aureus (GC 3053) [5]: 1 µg/mL (≈ 0.707 µM)
MIC Staphylococcus aureus (GC 4541) [5]: 1 µg/mL (≈ 0.707 µM)
MIC Staphylococcus aureus (GC 4542) [5]: 1 µg/mL (≈ 0.707 µM)
MIC Staphylococcus aureus (GC 4544) [5]: 2 µg/mL (≈ 1.41 µM)
MIC Staphylococcus aureus (GC 4545) [5]: 2 µg/mL (≈ 1.41 µM)
MIC Staphylococcus aureus-SMITH (GC 4543) [5]: 1 µg/mL (≈ 0.707 µM)
MIC Staphylococcus haemolyticus (GC 4546) [5]: 1 µg/mL (≈ 0.707 µM)
MIC Staphylococcus aureus (GC 1131) ([5]; inoculum 5×10^5 CFU/mL, strain GC 1131): 2 µg/mL (≈ 1.41 µM)
MIC Staphylococcus aureus (ATCC 29213) ([5]; strain ATCC 29213): 1 µg/mL (≈ 0.707 µM)
MIC Staphylococcus aureus (GC 3051) ([5]; strain GC 3051): 1 µg/mL (≈ 0.707 µM)
MIC Staphylococcus aureus (GC 3053) ([5]; strain GC 3053): 1 µg/mL (≈ 0.707 µM)
MIC Staphylococcus aureus (GC 4541) ([5]; strain GC 4541): 1 µg/mL (≈ 0.707 µM)
MIC Staphylococcus aureus (GC 4542) ([5]; strain GC 4542): 1 µg/mL (≈ 0.707 µM)
MIC Staphylococcus aureus (GC 4544) ([5]; strain GC 4544): 2 µg/mL (≈ 1.41 µM)
MIC Staphylococcus aureus (GC 4545) ([5]; strain GC 4545): 2 µg/mL (≈ 1.41 µM)
MIC Staphylococcus haemolyticus (GC 4546) ([5]; strain GC 4546): 1 µg/mL (≈ 0.707 µM)
MIC Coagulase Negative Staphylococcus (GC 4547) ([5]; strain GC 4547): 1 µg/mL (≈ 0.707 µM)
MIC Coagulase Negative Staphylococcus (GC 4548) ([5]; strain GC 4548): 0.5 µg/mL (≈ 0.353 µM)
MIC Coagulase Negative Staphylococcus (GC 4549) ([5]; strain GC 4549): 0.5 µg/mL (≈ 0.353 µM)
MIC Coagulase Negative Staphylococcus (GC 4551) ([5]; strain GC 4551): 2 µg/mL (≈ 1.41 µM)
MIC Coagulase Negative Staphylococcus (GC 6257) ([5]; strain GC 6257): 1 µg/mL (≈ 0.707 µM)
MIC Staphylococcus aureus-SMITH (GC 4543) ([5]; strain SMITH GC 4543): 1 µg/mL (≈ 0.707 µM)
MIC Streptococcus agalactiae (GC 4564) ([6]; Streptococcus agalactiae (GC 4564)): 0.25 µg/mL (≈ 0.177 µM)
MIC Streptococcus pneumoniae (ATCC 6301) ([6]; Streptococcus pneumoniae (ATCC 6301)): <0.06 µg/mL
MIC Streptococcus pneumoniae (GC 1894) ([6]; Streptococcus pneumoniae (GC 1894)): <0.06 µg/mL
MIC Streptococcus pneumoniae (GC 4565) ([6]; Streptococcus pneumoniae (GC 4565)): <0.06 µg/mL
MIC Streptococcus pyogenes (GC 4563) ([6]; Streptococcus pyogenes (GC 4563)): 0.25 µg/mL (≈ 0.177 µM)
MIC Streptococcus pneumoniae (ATCC 6301) ([6]; strain ATCC 6301): <0.06 µg/mL
MIC Streptococcus pneumoniae (GC 1894) ([6]; strain GC 1894): <0.06 µg/mL
MIC Streptococcus pyogenes (GC 4563) ([6]; strain GC 4563): 0.25 µg/mL (≈ 0.177 µM)
MIC Streptococcus agalactiae (GC 4564) ([6]; strain GC 4564): 0.25 µg/mL (≈ 0.177 µM)
MIC Streptococcus pneumoniae (GC 4565) ([6]; strain GC 4565): <0.06 µg/mL
